Columns and labels:
Psychrobacter DNA = assay: PCR amplification using inosine-containing primers; format: biochemical; conditions: primers 75 pmol or 150 pmol, 35 cycles (FIG. 11)
Procedure: (§1) Using inosine-containing primers, the difference in PCR amplification was compared. For comparison, KOD mutants and KOD (wild-type), each mixed with 1 μg of a KOD antibody per U of the enzyme, and Taq DNA polymerase mixed with an antibody (a mixture of equal amounts of Taq DNA polymerase (produced by Toyobo Co. Ltd.) and Anti-Taq High (produced by Toyobo Co. Ltd.)) were used.
For PCR with the KOD mutants and PCR with the KOD, a buffer, MgSO4, and dNTPs included in KOD-Plus-Ver. 2 (produced by Toyobo Co. Ltd.) were used. 50 μl of individual reaction solutions containing 1× PCR buffer, 1.5 mM MgSO4, dNTPs (dATP, dTTP, dCTP, dGTP) in an amount of 0.2 mM, primers (SEQ ID NOs: 40 and 41) in an amount of 75 pmol or 150 pmol, 100 ng of Psychrobacter DNA, and 1 U of each respective enzyme mixed with the antibody were used. PCR was performed using a GeneAmp PCR system 9700 (Applied Biosystems) on the following schedule: preliminary reaction at 94° C. for 2 minutes, followed by 35 cycles, each cycle consisting of 98° C. for 10 seconds, 54° C. for 10 seconds, and 68° C. for 1 minute.
For PCR with the Taq DNA polymerase, 50 μl of a reaction solution containing 1× buffer included in Blend Taq (product of Toyobo), dNTPs (dATP, […], dCTP, dGTP) in an amount of 0.2 mM, primers in an amount of 75 pmol or 150 pmol (the same as above), 100 ng of Psychrobacter DNA, and 2.5 U of the enzyme mixed with the antibody was used. PCR was performed using a GeneAmp PCR system 9700 (Applied Biosystems) on the following schedule: preliminary reaction at 94° C. for 2 minutes, followed by 35 cycles, each cycle consisting of 94° C. for 30 seconds, 54° C. for 30 seconds, and 68° C. for 1 minute.
(§2) After the completion of each individual reaction, each of the resulting reaction solutions was analyzed using a DNA-1000 kit for MultiNA (produced by Shimadzu Corporation) to confirm amplified DNA fragments.

[1] = test system: bisulfite-treated human genomic DNA (MINT1, RAR, THBS1, MINT31); assay: PCR amplification of bisulfite-treated DNA; format: biochemical; conditions: 40 cycles (FIG. 12)
Procedure: as §1, with “bisulfite-treated DNA as a template and various” for “inosine-containing”, “mutant (Y7A/V93K)” for “mutants”
The bisulfite-treated DNA used was human genomic DNA (produced by Roche) that had been treated with a MethylCode Bisulfite Conversion Kit of Invitrogen.
For PCR with the KOD mutant (Y7A/V93K) and PCR with the KOD, a buffer, MgSO4, and dNTPs included in KOD-Plus-Ver. 2 (produced by Toyobo Co. Ltd.) were used. 50 μl of individual reaction solutions containing 1× PCR buffer, 1.5 mM MgSO4, dNTPs (dATP, dTTP, dCTP, dGTP) in an amount of 0.2 mM, primers (SEQ ID NOs: 42 and 43 for amplification of MINT1; SEQ ID NOs: 44 and 45for amplification of RAR; SEQ ID NOs: 46 and 47 for amplification of THBS1; SEQ ID NOs: 48 and 49 for amplification of MINT31) in an amount of 15 pmol, 1 μl of bisulfite-treated DNA extract, and 1 U of each respective enzyme mixed with the antibody were used. PCR was performed using a GeneAmp PCR system 9700 (Applied Biosystems) on the following schedule: preliminary reaction at 94° C. for 2 minutes, followed by 40 cycles, each cycle consisting of 98° C. for 10 seconds, 55° C. for 15 seconds, and 68° C. for 1 minute.
For PCR with the Taq DNA polymerase, 50 μl of a reaction solution containing 1× buffer included in Blend Taq (product of Toyobo), dNTPs (dATP, […], dCTP, dGTP) in an amount of 0.2 mM, primers in an amount of 15 pmol (the same as above), 1 μl of bisulfite-treated DNA extract, and 2.5 U of the enzyme mixed with the antibody was used. […]
as §2

Question: Which “amplification with inosine-containing primers” value (Psychrobacter DNA) does the source give for “KOD Y7A/V93K: modified KOD DNA polymerase with Y7A and V93K” here?
Answer: Its value is “stable amplification was confirmed”.

Question: And the “amplification of bisulfite-treated DNA” value [1]?
Answer: The value was “stable amplification was confirmed”.

Question: For “KOD N210D/Y7A/P36H: KOD N210D (exo(−)) mutant with Y7A and P36H”, which “amplification with inosine-containing primers” value (Psychrobacter DNA) is on record?
Answer: Its value is “stable amplification was confirmed”.

Question: “KOD Y7A/P36H: modified KOD DNA polymerase with Y7A and P36H” was tested. Which “amplification with inosine-containing primers” value (Psychrobacter DNA) did it give?
Answer: Its value is “stable amplification was confirmed”.
